From US10800790B2, “Sesquiterpenoid STAT3 inhibitors” (University of Hawaii, priority 2013, dated 2020)
Entries after “also recorded” stand apart in the source; their conditions may differ. Like-named read-outs stand apart in the source and are kept apart here.

Columns and labels:
[1] = system: U251MG glioblastoma cells; experiment: CyQuant cell viability/proliferation assay, U251MG; format: cell-based, human; settings: for Cell-type selectivity of growth inhibition, in words: U251MG versus other cells incl. NIH3T3, Table 1/FIG. 2 numbering
Description: (§1) The cell viability assay was performed as previously reported (Zhang X, et al. (2010)). Briefly, a 10 millimolar concentration stock solution in dimethylsulfoxide (DMSO) of the tested molecule was first prepared. Next, the stock solution was diluted down to various working solutions in water. Thus, a formulation of the tested compound in a DMSO/water mixture was used to test for cell viability. (A novel small-molecule disrupts STAT3 SH2 domainphosphotyrosine interactions and STAT3-dependent tumor processes, Biochem Pharmacol 79:1398-1409; Zhao W, Jaganathan S, & Turkson J (2010), A cell-permeable STAT3 SH2 domain mimetic inhibits STAT3 activation and induces antitumor cell effects in vitro. J Biol Chem. 285:35855-35865). Cells (U251MG, MDA-MB-231 or NIH3T3) were obtained from ATCC (Manassas, Va.) and were cultured in 96-well plates at 2,000 cells per well for 24 h and were treated with compounds (5 micromolar concentration) for 72 h. Cell viabilty was determined using CyQuant assay, according to the manufacturer's (Invitrogen, CA, USA) instructions. Relative viability of the treated cells was normalized to the DMSO-treated control cells.

[2] = system: MDA-MB-231 breast cancer cells; experiment: CyQuant cell viability/proliferation assay, MDA-MB-231; format: cell-based, human; settings: Homo sapiens, MDA-MB-231; at 5 μM, 72 h; Table 3 numbering (isolates 1-16)
Description: as §1

[3] = system: normal NIH3T3 mouse fibroblasts; experiment: CyQuant cell viability/proliferation assay, NIH3T3; format: cell-based; settings: Mus musculus, NIH3T3; at 5 μM, 72 h; Table 3 numbering (isolates 1-16); read-out: NIH-3T3 % inhibition
Description: as §1

[4] = system: STAT3 tyrosine phosphorylation; settings: Butturini et al. 2011; cited from earlier work
[5] = system: intracellular glutathione; settings: literature reports, cited from earlier work
[6] = system: GSH levels in U251 MG cells; experiment: Glutathione (GSH) levels in U251 MG cells
Description: Reduced glutathione (GSH) and oxidized glutathione disulfide (GSSG) levels were assayed using a commercially available kit (Cayman Chemical, Ann Arbor, Mich.) and following the manufacturer's instructions.

[7] = system: pY705STAT3 in U251MG or MDA-MB-231 cells; experiment: Immunoblotting of pY705STAT3 in treated tumor cells; settings: 5 micromolar, U251MG or MDA-MB-231
Description: Positions of STATs:DNA complexes or proteins in gel are labeled; control lanes (0) represent nuclear extracts or whole-cell lysates prepared from 0.05% DMSO-treated cells. Data are representative of at least three to four independent determinations.
Lysates of equal total protein prepared in the lysis buffer (50 mM Hepes, pH 7.5, 150 mM NaCl, 2 mM EDTA, 1% Triton X-100, 0.1% SDS), were subjected to IP or Western blotting analysis. Antibodies against STAT3, pY705STAT3, Src, pY416Src, Erk1/2, and pT202/Y204Erk1/2 and GAPDH (Cell Signaling Technology, Danvers, Mass.), and anti-β-actin, and HSP105 (Santa Cruz Biotechnology, Dallas, Tex.) are from the designated sources.
Whole-cell lysates were prepared in boiling SDS sample loading buffer to extract total proteins, as reported previously. […] Nitrocellulose membranes were probed with primary antibodies, and the detection of horseradish peroxidase-conjugated secondary antibodies by enhanced chemiluminescence (Amersham) was performed. Antibodies used were monoclonal anti-pYSTAT3 and anti-STAT3 antibodies (Cell Signaling Technology, Danvers, Mass.).

C=C1C(=O)O[C@@H]2/C=C(\C)CC/C=C(\C)CC[C@@H]12 [costunolide, reference compound]
inhibition at 5 µM ([1]; Homo sapiens, U-251, at 5 μM, 72 h, Table 3 numbering (isolates 1-16)): 17.5%
Cell-type selectivity of growth inhibition, in words [1]: generally toxic to U251MG and normal NIH3T3
Cell-type selectivity of growth inhibition, in words ([1]; listed as costinulide): non-specfically active against glioma U251MG and normal NIH3T3 mouse fibroblasts
inhibition at 5 µM [2]: 10.5%
inhibition at 5 µM [3]: 41.6%
Tyrosine-phosphorylation of STAT3 in cells treated with IL-6 [4]: inhibited the tyrosine-phosphorylation of STAT3
Intracellular glutathione content [5]: rapid drop in intracellular glutathione content
Intracellular glutathione content ([5]; listed as costinulide): suppress the intracellular glutathione (GSH) pool
Effect on GSH levels [6]: suppressed GSH levels
Effect on pY705STAT3 / STAT3 activity (immunoblot), in words ([7]; 0-24 h, Table 1/FIG. 2 numbering, listed as costinulide): little effect on STAT3 activity; also recorded: minimal effects on pY705STAT3
Inhibition of pY705STAT3 (immunoblot), in words ([7]; Table 3 numbering (isolates 1-16)): negligible or weak
